The subject of series [1] is 18 kDa translocator protein (TSPO). In words: PET imaging of [^18F]SF51 in rhesus monkey brain with kinetic analysis (2TCM, Logan plot, Lassen plot). Type of series: in vivo. The conditions noted are these: radioligand [^18F]SF51. As for the experimental part: Electrocardiogram, body temperature, heart rate, and respiratory rate measures were monitored throughout the scan.
Brain PET imaging was performed using a microPET Focus 220 camera (Siemens Medical Solution; Knoxville, TN). […] For baseline experiments, 20 mL of a vehicle containing 20% (2-hydroxypropyl)-β-cyclodextrin and two equivalents of HCl were injected intravenously 10 min before radioligand administration. For the blocked experiment, PK11195 was dissolved in vehicle and then injected intravenously (5 mg/kg) 10 min before radioligand injection for all three monkeys. One of the three monkeys underwent an additional blocked scan with 5 mg/kg of PBR28, performed using a MultiScan™ LFER 150 PET/CT (Mediso USA, LLC; Arlington, VA). The interval between baseline and blocked imaging sessions was at least three weeks in order to allow the monkey to recover from arterial blood sampling. Focus 220 PET images were histogrammed into 30 time frames (6 × 30, 3 × 60, 2 × 120, 4 × 300, and 15 × 600 s) and reconstructed using Fourier rebinning plus a two-dimensional filtered back-projection with scatter and attenuation correction. MultiScan LFER PET images were reconstructed with 3D-OSEM with two iterations and nine subsets and were corrected for scatter and attenuation.
PET images were co-registered to a standardized monkey MRI template using PMOD software (PMOD version 4.1, PMOD Technologies Ltd.; Zurich, Switzerland). Thirty-three predefined regions of interest (ROIs) from a monkey brain template were applied to the co-registered PET images to obtain regional time-activity curves (Supplementary Table S2). Brain uptake was expressed as standardized uptake value (SUV), which normalizes for injected radioactivity and body weight. Using the brain time-activity curves and the radiometabolite-corrected arterial input function, the total VT was derived from a two-tissue compartment model (2TCM). Receptor occupancy by PK11195 and nondisplaceable distribution volume (VND/fP) of [^18F]SF51 were determined by an axes-transformed Lassen plot, where the y-axis reports the difference in VT between the baseline and the blocked scans, corrected by the respective fp values, and the x-axis reports the values at baseline (VTbase/fPbase).

Series [2] has as its system TSPO. Particulars: cited from earlier work; for BPND of whole brain: monkey brain.
Series [3] addresses TSPO. On the set-up: method as in PMID 25123416, PMID 34756026. Particulars: human brain homogenates; against [^3H]PK11195; cited from earlier work.

As for `CCC(C)N(C)C(=O)c1cc2ccccc2c(-c2ccccc2Cl)n1` (stereo not drawn) [PK11195, reference compound], in series [1] (PK11195 5 mg/kg i.v., three rhesus monkeys), the “Receptor occupancy (Lassen plot)” value was 102 ± 3%. Further, the “Slope of Lassen plot (= occupancy)” value in series [1] (PK11195 5 mg/kg, mean ± SD, n = 3) is listed as 1.02 ± 0.03.
`CC[C@@H](C)N([11CH3])C(=O)c1nc(-c2cccc(F)c2)c2ccccc2n1` [[^11C]SF51]: the “BPND of whole brain” value with TSPO [2] is 8.1.
As to `CC[C@@H](C)N([11CH3])C(=O)c1nc(-c2ccccc2Cl)c2ccccc2n1` [[^11C]ER176], the “VT/fP in the whole brain” value in the series with TSPO [2] (monkey) was 186 mL·cm^−3.
With `CC[C@@H](C)N(C)C(=O)c1nc(-c2ccccc2Cl)c2ccccc2n1` [ER176], the “Ki ratio between LAB and HAB” value at TSPO [3] is 1.28. Also, the “BPND of whole brain” value in the series with TSPO [2] is on record as 8.9.

The values are drawn from paper PMC10382351, “In vivo evaluation of a novel ^18F-labeled PET radioligand for translocator protein 18 kDa (TSPO) in monkey brain” (European Journal of Nuclear Medicine and Molecular Imaging, 2023).
